Patent US6521615B2, “Diagnosing an animal for pyrophosphate gout, osteoporosis, or osteoarthritis by assaying intracellular pyrophosphate content in peripheral blood cells” (The Regents of the University of California, priority 1998, dated 2003)
Entries after “also recorded” stand apart in the source; their conditions may differ. Read-outs that look alike come from different tables or passages of the source.

Tested on: human peripheral blood lymphocytes (mononuclear cells)
Method: Mononuclear Cell Isolation: For this purpose 5 ml of freshly drawn heparinized blood was layered on 3.0 ml of Histopaque in a 15 ml polypropylene centrifuge tube and centrifuged at room temperature for 20 minutes at 1,000 g. The mononuclear cell layer was then removed from the tube and transferred into a new 15-ml tube. Volume was brought to a total of 5 ml by addition of Hanks buffered salt solution lacking Mg and Ca (HBSS). This suspension of cells was again layered onto 3.0 ml of Histopaque and again centrifuged as before.
Resuspension of the centrifuged cells in 12-ml HBSS was repeated three times, each followed by 10 min centrifugation at a lower g of 250 g, 50 g, and 50 g to remove contaminating platelets which carry substantial PPi.
After decanting the supernatant, the cell pellet was resuspended in 1.0 ml of HBSS for counting in a hemocytometer. After counting, the cell suspension was spun for 10 minutes in a microfuge at 14,000 rpm. After decanting and thoroughly removing the supernatant, 3.0 μl of 0.1 M sodium […] (an alkaline phosphatase inhibitor) were added and the cells were lysed by addition of 100 μl of 1% triton X-100 and vortexing. The lysate is then stored frozen at −20° C. until time of assay.
PPi Assay: The assay of PPi in mononuclear cells in Tables 1 and 2 were done by the luminescent methods (Barshop, B A et al. Analyt Biochem (1991) 197:266-272). […] Each sample was assayed in duplicate and in the presence and absence of added pyrophosphate as a recovery test.
Volunteer two was an adult volunteer who had just been scheduled by the same internist to start the same medication for their hypertension.

COc1ccc([C@@H]2Sc3ccccc3N(CCN(C)C)C(=O)[C@@H]2OC(C)=O)cc1 [diltiazem]
effect on intracellular concentration of pyrophosphate (PPi) (mononuclear cells of peripheral blood, result in words): lowers the intracellular concentration of pyrophosphate (PPi); also recorded: comparable lowering of mononuclear cells in one of two patients | PPi (subject one (chondrocalcinosis), diltiazem 60 mg/day taken for only one day, collection 03/13/91): 241 pmole/10^6 cells | PPi (subject one (chondrocalcinosis), diltiazem 60 mg/day, collection 05/16/91): 128 pmole/10^6 cells | PPi (subject three (chondrocalcinosis), diltiazem 60 mg/day, collection 09/11/91): 343 pmole/10^6 cells
